From patent publication US10561619B2, “Pharmaceutical composition comprising dutasteride and propylene glycol monolaurate and preparation method of the same” (Yuyu Pharma, Inc., priority 2015, dated 2020)
In brackets after ≈: the same amount, converted by molar mass.

Assays:
[1] = Stability of dutasteride depending on oil type (degradation products); format: physicochemical
Method: In Test Example 2, in order to identify the stability of dutasteride in oil, the oil and dutasteride are mixed at a ratio of about 10 to 1, and then a stability test is carried out under an accelerated and stress condition, and a percentage of generated unknown degradation products with respect to the active ingredient is calculated to confirm whether degradation products are generated or not.
In order to identify the stability of dutasteride in mono- and di-glyceride of caprylic/capric acid used as an oil phase of AVODART®, an existing commercially-available formulation, the stability of dutasteride was compared under the stress condition (50° C., 95% RH) and the accelerated condition (40° C., 75% RH). In the comparison test, a sample prepared by dissolving 1.0 mg of dutasteride in 10.0 mg of propylene glycol monocaprylate and stored in a transparent vial and a sample prepared by dissolving 1.0 mg of dutasteride in 10.0 mg of mono- and di-glyceride of caprylic/capric acid and stored in a transparent vial were used.

[2] = Evaluation of oil solubility of dutasteride; format: physicochemical; conditions: for solubility at 24 h: oil or lipid, thermodynamic from solid
Method: In order to measure the solubility of dutasteride in oil, the solubility of dutasteride in glycerol tricaprylate, glycerol tricaprylate/caprate, glycerol tricaprylate/caprate/linoleate, propylene glycol dicaprylocaprate, propylene glycol dicaprate, propylene glycol dicaprylate and propylene glycol monolaurate was measured. In a 10 mL vial, a magnetic bar was placed. After 3 mL of the oil was added thereto, approximately 100 mg of dutasteride was added thereto while stirring under a room temperature (25° C.) condition, and the resultant mixture was stirred at 500 rpm or higher. After stirring for 24 hours, 1 mL of the resultant mixture was taken and separated using a centrifuge, and only a supernatant was taken to quantify an amount of dutasteride dissolved in the oil using liquid chromatography.

C[C@]12C=CC(=O)N[C@@H]1CC[C@@H]1[C@@H]2CC[C@]2(C)[C@@H](C(=O)Nc3cc(C(F)(F)F)ccc3C(F)(F)F)CC[C@@H]12 [dutasteride, 17β-N-(2,5-bis(trifluoromethyl))phenylcarbamoyl-4-aza-5α-androst-1-en-3-one]
percentage of degradation products with respect to dutasteride ([1]; in mono- and di-glyceride of caprylic/capric acid, stress condition (50° C., 95% RH), Week 1): None
percentage of degradation products with respect to dutasteride ([1]; in mono- and di-glyceride of caprylic/capric acid, stress condition (50° C., 95% RH), Week 2): None
percentage of degradation products with respect to dutasteride ([1]; in mono- and di-glyceride of caprylic/capric acid, stress condition (50° C., 95% RH), Week 3): None
percentage of degradation products with respect to dutasteride ([1]; in propylene glycol monolaurate, accelerated condition (40° C., 75% RH), Week 4): not generated and None
percentage of degradation products with respect to dutasteride ([1]; in propylene glycol monolaurate, stress condition (50° C., 95% RH), Week 1): None
percentage of degradation products with respect to dutasteride ([1]; in propylene glycol monolaurate, stress condition (50° C., 95% RH), Week 2): None
percentage of degradation products with respect to dutasteride ([1]; in propylene glycol monolaurate, stress condition (50° C., 95% RH), Week 3): None
solubility at 24 h ([2]; glycerol tricaprylate (oil), in glycerol tricaprylate, 25° C., stirring 24 hours): 840 µg/mL (≈ 1590 µM)
solubility at 24 h ([2]; glycerol tricaprylate/caprate/linoleate (oil), in glycerol tricaprylate/caprate/linoleate, 25° C., stirring 24 hours): 220 µg/mL (≈ 416 µM)
Solubility ([2]; in glycerol tricaprylate/caprate, 25° C., stirring 24 hours): 810 µg/mL (≈ 1530 µM)
solubility at 24 h ([2]; propylene glycol dicaprylocaprate (oil), in propylene glycol dicaprylroccaprate, 25° C., stirring 24 hours): 970 µg/mL (≈ 1840 µM)
higher solubility in propylene glycol monolaurate compared to other tested oils ([2]; propylene glycol monolaurate vs other tested oils): ≥ 10 times
